Literature values, collected in patent US20020132751A1, “Detergent compositions” (Unilever Home & Personal Care USA, Division of Conopco, Inc., priority 2000, published 2002).

Conditions: grams of solid to form a saturated solution in 100 grams of water at 20° C.

**Q.** For `O=BO[O-].[Na+]` [Sodium perborate anhydrous], which “Water Solubility (g/100 g)” value is on record?
**A.** The value was 3.7 g/100 g.

**Q.** For `O=P(O)(O)OP(=O)(O)OP(=O)(O)O` [Sodium tripolyphosphate anhydrous], which “Water Solubility (g/100 g)” value is on record?
**A.** The value was 15 g/100 g.
